# Data as given in article doi:10.1101/2025.11.23.690065v1 (biorxiv, 2025).
# Legend:
# [1] = target: T1, His-TREM2 (TREM2) (Homo sapiens, UniProt Q9NZC2); assay: MST; type: binding
# T1 sequence (Q9NZC2 19-174 limits assumed): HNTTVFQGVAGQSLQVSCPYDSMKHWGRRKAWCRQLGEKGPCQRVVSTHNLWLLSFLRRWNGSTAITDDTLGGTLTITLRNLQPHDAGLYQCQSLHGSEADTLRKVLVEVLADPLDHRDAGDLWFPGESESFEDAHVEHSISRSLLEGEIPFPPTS
# [2] = target: T2, TREM1 (Homo sapiens, UniProt Q9NP99); assay: single-dose TRIC/MST screen; type: binding; details: PBS pH 7.4, 0.05% Tween-20; bound from single-dose screen at 300 µM
# T2 sequence (Q9NP99 21-205 limits assumed): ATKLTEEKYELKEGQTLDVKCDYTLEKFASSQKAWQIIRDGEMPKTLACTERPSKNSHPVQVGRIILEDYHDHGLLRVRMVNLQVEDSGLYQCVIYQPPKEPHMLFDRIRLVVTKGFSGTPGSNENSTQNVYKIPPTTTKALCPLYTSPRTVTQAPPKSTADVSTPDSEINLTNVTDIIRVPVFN
# [3] = target: T3, LAG-3 (Homo sapiens, UniProt P18627); assay: single-dose TRIC screen; type: binding; details: 2% DMSO; bound from single-dose screen at 300 µM
# T3 sequence (P18627 23-525): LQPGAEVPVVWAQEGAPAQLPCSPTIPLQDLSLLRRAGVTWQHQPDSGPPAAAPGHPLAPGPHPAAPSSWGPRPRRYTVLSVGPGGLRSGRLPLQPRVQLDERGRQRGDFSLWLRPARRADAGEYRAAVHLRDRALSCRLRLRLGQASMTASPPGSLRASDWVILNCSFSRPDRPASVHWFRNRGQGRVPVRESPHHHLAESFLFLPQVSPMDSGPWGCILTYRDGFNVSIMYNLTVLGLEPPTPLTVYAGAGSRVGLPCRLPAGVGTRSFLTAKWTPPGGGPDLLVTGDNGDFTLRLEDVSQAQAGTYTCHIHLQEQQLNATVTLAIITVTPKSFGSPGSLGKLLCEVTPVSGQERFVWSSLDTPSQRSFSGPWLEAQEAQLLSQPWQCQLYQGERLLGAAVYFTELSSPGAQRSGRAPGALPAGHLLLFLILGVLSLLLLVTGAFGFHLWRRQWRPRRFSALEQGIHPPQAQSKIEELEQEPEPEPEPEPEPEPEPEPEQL
# [4] = target: T1, His-TREM2 (TREM2); assay: biochemical
# [5] = target: T2, TREM1; assay: MST; type: binding
# [6] = target: T3, LAG-3; assay: MST; type: binding
# [7] = target: T1, His-TREM2 (TREM2); assay: nanoDSF thermal shift, dose-response; type: binding
# [8] = target: T1, His-TREM2 (TREM2); assay: nanoDSF thermal shift; type: binding; details: read-out: ΔTm at 100 μM
SMILES,Kd [1],KD [2],KD [3],Kd [4],Kd [5],Kd [6],EC50 [7],ΔTm at 100 µM [8]
Cc1cccc(Cn2cccc(C(=O)NC3CCCCCC3)c2=O)c1 [2M06-8],> 300 µM,> 300 µM,> 300 µM,,,,,
CC1(C(=O)Nc2ccc3c(c2)CCN3C(=O)c2ccoc2)CCCC1 [6B10-8],127 ± 16 µM,> 300 µM,> 300 µM,136 ± 14 µM,,,,
Cc1cccn2c(=O)cc(CN3C(C(=O)O)CC4CCCCC43)nc12 (stereo not drawn) [7G19],3.8 ± 0.3 µM,,,,46.5 ± 38.1 µM,61.9 ± 23.2 µM,,
O=C(O)C1CC2CCCCC2N1Cc1cc(=O)n2ccccc2n1 (stereo not drawn) [7G19-5],4.5 ± 0.9 µM,,> 300 µM,,56.6 ± 8.6 µM,,,
NC(=O)C1CCN(C(=O)c2cccn(Cc3ccccc3)c2=O)CC1 [2M06-1],124 ± 36 µM,> 300 µM,> 300 µM,,,,,
Cn1cc(C(=O)N2C(C(=O)O)CC3CCCCC32)ccc1=O (stereo not drawn) [2M06-6],> 300 µM,> 300 µM,> 300 µM,,,,,
O=C(Nc1ccc2c(c1)CCN2)C1CCCC1 [6B10],37.6 ± 15.8 µM,,> 300 µM,,66.9 ± 28.6 µM,,,
O=C(Nc1ccc2c(c1)CCN2C(=O)c1ccoc1)C1CC2C=CC1C2 (stereo not drawn) [6B10-9],68.3 ± 2.8 µM,> 300 µM,> 300 µM,,,,62 µM,> 2 °C
CC(=O)N1CCc2cc(NC(=O)C3(C#N)CCCC3)ccc21 [6B10-13],> 300 µM,> 300 µM,> 300 µM,,,,,
O=C1CCCN1c1ccc2c(c1)CCN2 [6B10-1],19.5 ± 6.8 µM,,,,121 ± 3.4 µM,59.4 ± 14.1 µM,,
COC1(CC(=O)Nc2ccc3c(c2)CCN3)CCC1 [6B10-3],> 300 µM,> 300 µM,> 300 µM,,,,,
Cc1cccc(Cn2cccc(C(=O)N3C(C(=O)O)CC4CCCCC43)c2=O)c1 (stereo not drawn) [2M06],26.1 ± 5.1 µM,> 300 µM,> 300 µM,,,,,
CC(C)(C)CC(=O)Nc1ccc2c(c1)CCN2 [6B10-2],> 300 µM,> 300 µM,> 300 µM,,,,,
